Experimental data reported in patent US12409140B2, “Therapeutic formulations and uses thereof” (Bionomics Limited, priority 2019, dated 2025).

How the values were obtained:
[1] = Biorelevant dissolution testing (solubility/precipitation): SGF (0.1N HCl) then transfer to SIF (FaSSIF); format: physicochemical; settings: for Total Drug CmaxGB: SGF (0.1N HCl, pH=1), 0-30 min, equivalent to 2.0 mg/mL of compound I in 50 mL; for Total Drug AUC 35-210 FaSSIF / Total Drug C210: SIF/FaSSIF; for Total Drug AUC 35-210 FaSSIF: 35-210 min; for Total Drug C210: 210 min; for Total Drug CmaxFaSSIF: after transfer at 30 min into 50 mL SIF (2.24 mg/mL FaSSIF in 100 mM PBS)
Protocol: Appropriate amounts (equivalent to 2.0 mg/mL of compound I) of composition of invention were added to 50 mL of 0.1N HCl and stirred. The aliquots of mixture were withdrawn at 10 and 25 minutes, vortexed for 10 seconds and the dissolved amount was measure by analytical HPLC using external reference standards at a wavelength of 240 nm. After 30 minutes, the entire content of sample from SGF incubation was transferred into 50 mL of SIF media with stirring, and the dissolved amount was measured at 35, 50, 75, 120 and 210 minutes.

[2] = Solubility of Compound I (preformulation, stated in words); format: physicochemical; settings: b16: in vitro, crystalline form
[3] = Oral exposure of suspension formulations (preformulation studies); format: in vivo; settings: increased with 0.5% HPMC, depends on fed/fasted state
[4] = Permeability of Compound I (stated in words); format: in vitro ADME

SMILES | Increase in AUC over API AUC ([1]; AUC 35-210 FaSSIF relative to BNC210 API) | Total Drug CmaxGB [1] | Total Drug AUC 35-210 FaSSIF [1] | Total Drug C210 [1] | Total Drug CmaxFaSSIF [1] | Solubility ([2]; listed as Compound I) | Solubility ([2]; listed as compound I) | Oral exposure [3] | Permeability [4]
CCn1cc(C(=O)N2CCOCC2)c(=O)c2cc(NC3Cc4ccccc4C3)cnc21 [100% BNC210 SD] | 2 | 158 μgA/mL | 8700 min * μgA/mL | 60 μgA/mL | 68 μgA/mL | – | – | – | –
CCn1cc(C(=O)N2CCOCC2)c(=O)c2cc(NC3Cc4ccccc4C3)cnc21 [BNC210 API] | – | 88 μgA/mL | 4300 min * μgA/mL | 29 μgA/mL | 32 μgA/mL | poorly soluble | poor in vitro solubility | low oral exposure | moderate permeability
